{
  "source": "paper PMC6691347",
  "about": "“Design and Development of a Novel Peptide for Treating Intestinal Inflammation” (Frontiers in Immunology, 2019)",
  "key": {"[1]": {"tested_on": "LPS-stimulated RAW264.7 cells", "assay": "ELISA of cytokine release from LPS-stimulated RAW264.7 cells", "format": "cell-based, Mouse", "details": "RAW264.7, 10 μg/mL peptide 1 h before 100 ng/mL LPS, 12 h, ELISA of supernatant; compared to the other tested peptides; n = 3", "experimental": "(§1) RAW264.7 cells were treated with or without 10 μg/mL peptides for 1h before the addition of 100 ng/mL LPS and further incubation for 12 h at 37°C. Levels of tumor necrosis factor-alpha (TNF-α), interleukin-6 (IL-6), and IL-1β were detected in culture supernatant and jejunum, respectively. In addition, the level of interferon-gamma (IFN-γ) was detected in the jejunum. ELISA was performed using a commercial ELISA kit (eBioscience, San Diego, USA)."}, "RAW264.7 cells": {"tested_on": "RAW264.7 cells", "assay": "Cell viability assay (CCK-8)", "format": "cell-based, Mouse", "details": "for cytotoxic activity on RAW264.7 macrophage cells: CCK-8, 24 h, among selected hybrid peptides and their parental peptides; for cell viability: RAW264.7 cells, lower doses of peptide, 24 h, CCK-8, OD450, 8 biological replicates", "experimental": "The viability of peptide-treated RAW264.7 cells was determined using the Cell Counting Kit-8 (CCK-8) Assay Kit (Dojindo) ([42]). RAW264.7 cells were pre-seeded on a 96-well plate at a density of 3 × 10^4 cells/mL in 100 μL DMEM medium overnight. The cells were either treated with various concentrations of peptides or without peptides at 37°C and 5% CO2 for 24 h. Each well was incubated with 10 μL CCK-8 solution for 4 h in the darkness. Then, the absorbance at 450 nm was measured using a microplate reader. Cell viability was calculated as:\nCell viability (%)=(OD450 (sample)/OD450(control))×100%\nwhere OD450(sample) is the absorbance at 450 nm of the cells with peptides treated and OD450(control) is the absorbance at 450 nm of the cells without peptides treated."}, "[2]": {"tested_on": "LPS-induced intestinal inflammation", "assay": "LPS-induced intestinal inflammation murine model", "format": "in vivo, C57/BL6 male mice", "experimental": "Seventy-two C57/BL6 male mice (6–8 weeks of age) were purchased from Charles River (Beijing, China). Mice were maintained in a specific pathogen free (SPF) environment at 22 ± 1°C with relative 55 ± 10% humidity, and the assays were performed in conformity with the laws and regulations for live animal treatment at China Agricultural University.\nThe mice were randomly distributed into six groups (n = 12 each): control, LPS (E. coli, O111:B4, Sigma-Aldrich, USA) treatment, LL-37 pretreatment followed by LPS treatment (LL-37 + LPS), Tα1 pretreatment followed by LPS treatment (Tα1 + LPS), LTA pretreatment followed by LPS treatment (LTA + LPS). Different peptides (10 mg/kg mouse weight) were injected intraperitoneally once daily for 7 days, whereas an equal volume of sterile saline was injected intraperitoneally to the control and LPS-treated groups. On day 7, mice in LPS, LL-37 + LPS, Tα1 + LPS, and LTA + LPS groups were intraperitoneally injected with LPS (10 mg/kg mouse weight) 1h after saline or the peptides treatment, and the control group was intraperitoneally injected with an equal volume of saline. The mice were then euthanized by cervical dislocation 6 h after intraperitoneal injection of LPS or saline, and samples of the intestines were collected for analysis. The body weights of the mice were recorded before and after the experiment.\nIntestinal tissues samples from the jejunum were fixed in 4% paraformaldehyde immediately after the mice were euthanized. After embedding, the tissues were sectioned (5 μm) using an RM2235 microtome (Leica) and stained with hematoxylin-eosin (H&E). Images were acquired using a DM3000 microscope. LPS-induced intestinal injury was evaluated using Chiu's score ([43]) according to changes of the villus and glands of the jejunal mucosa. Villus height and crypt depth were measured using CaseViewer software.\nFor immunohistochemical analysis of CD177^+, nonspecific binding sites were blocked with PBS containing 1% w/v BSA for 1 h. Anti-CD177^+ antibodies (Santa, USA) were added at a dilution of 1:100 and incubated overnight at 4°C. Samples were washed five times in PBS and treated with horse-radish peroxidase (HRP)-conjugated rabbit anti-goat IgG (JIR, USA) at ratio of 1:100; samples were left to incubate at 4°C for 1 h. After washing with PBS, 3,3′-diaminobenzidine (DAB; DAKO, USA) was added, and the slides were counterstained with Harris hematoxylin. Finally, the samples were dehydrated in an alcohol gradient (70–100%), and cleared in xylene. All slides were mounted in neutral balsam.\nThe apoptotic cells in the jejunal sections were detected via a commercial the terminal deoxynucleotidyl transferase mediated dUTP nick end labeling (TUNEL) staining kit according to the manufacturer's instruction (Roche, Indianapolis, IN, USA). The sections were co-stained with the DAPI (Servicebio, Wuhan, China). The number of apoptotic cells was counted in four to six randomly selected fields at 200 × magnification.\nas §1\nThe activities of myeloperoxidase (MPO) in the jejunum were detected using ELISA kits (Boster Wuhan, China) according to the manufacturer's instructions.\nWhole protein of intestinal tissues was obtained with the whole protein extraction kit (KeyGEN Biotech, Nanjing, China) according to the manufacturer's instructions. The protein concentration was measured via the BCA kit (KeyGEN Biotech, Nanjing, China). […]"}, "[3]": {"assay": "Neutralization of LPS, Chromogenic End-point Tachypleus Amebocyte Lysate (CE TAL) assay", "format": "biochemical, E. coli", "experimental": "The neutralization of LPS by the peptides was assessed using a quantitative Chromogenic End-point Tachypleus Amebocyte Lysate (CE TAL) assay via the QCL-1000 kit (Xiamen, China). A constant concentration of LPS (1.0 EU/mL final concentration; E. coli, O111:B4, Sigma-Aldrich, USA) was incubated with various concentrations of the peptides or polymyxin B (PMB) (0–64 μg/mL final concentration; Sigma-Aldrich, USA) at 37°C for 15 min in the wells of […] sterile microliters plates. The 100 μL aliquots concentrate of limulus amebocyte lysate reagent was added and incubated at 37°C for 6 min. On the addition of chromogenic substrate, yellow color appeared. The reactions were stopped by adding 25% HCl, and then the absorbances measured at 540 nm ([45])."}, "[4]": {"details": "ELISA, peptide 10 mg/kg i.p. pretreatment, LPS 10 mg/kg, LTA compared to Tα1- or LL-37-pretreated groups, n = 12"}, "[5]": {"details": "jejunal tissues, western blot, LTA pretreatment vs LPS, n = 3"}, "[6]": {"details": "jejunum, western blot, LTA 10 mg/kg i.p. pretreatment, LPS 10 mg/kg"}},
  "data": [
    {"sequence": "IGKEFKRIVQRIKDFLRNLVPRTEKEKKEVVE [LTA, hybrid peptide LL-37-Tα1]", "values": [
      {"measurement": "release of IL-1β", "setting": "[1]", "value": "remarkable decrease"},
      {"measurement": "release of IL-6", "setting": "[1]", "value": "remarkable decrease"},
      {"measurement": "release of TNF-α", "setting": "[1]", "value": "remarkable decrease"},
      {"measurement": "cytotoxic activity on RAW264.7 macrophage cells", "setting": "RAW264.7 cells", "value": "lowest cytotoxic activity"},
      {"measurement": "cell viability", "setting": "RAW264.7 cells", "value": "greater than 100%"},
      {"measurement": "plasma LPS level", "setting": "[2]; CE TAL test of mouse plasma, LTA 10 mg/kg i.p. pretreatment, LPS 10 mg/kg", "value": "significantly reduced the plasma LPS level"},
      {"measurement": "MPO activity in the jejunum", "setting": "[2]; ELISA kit, peptide 10 mg/kg i.p. pretreatment, LPS 10 mg/kg, compared to the LPS-treated group, n = 12", "value": "markedly decreased MPO activity"},
      {"measurement": "IFN-γ concentration in the jejunum", "setting": "[2]; [4]", "value": "significantly lower"},
      {"measurement": "IL-1β concentration in the jejunum", "setting": "[2]; [4]", "value": "significantly lower"},
      {"measurement": "IL-6 concentration in the jejunum", "setting": "[2]; [4]", "value": "significantly lower"},
      {"measurement": "TNF-α concentration in the jejunum", "setting": "[2]; [4]", "value": "significantly lower"},
      {"measurement": "infiltration of CD177+ neutrophils into jejunal tissue", "setting": "[2]; immunohistochemistry, peptide 10 mg/kg i.p. pretreatment, LPS 10 mg/kg", "value": "reduced this effect to the basal level"},
      {"measurement": "apoptosis index (TUNEL staining)", "setting": "[2]; jejunal sections, peptide 10 mg/kg i.p. pretreatment, LPS 10 mg/kg, compared to the LPS-treated group", "value": "significantly reduced the apoptosis index"},
      {"measurement": "phosphorylation of IKK-β", "setting": "[2]; [5]", "value": "decreased"},
      {"measurement": "phosphorylation of IκB-α", "setting": "[2]; [5]", "value": "decreased"},
      {"measurement": "phosphorylation of NF-κB", "setting": "[2]; [5]", "value": "decreased"},
      {"measurement": "Chiu's score", "setting": "[2]; jejunum H&E, mice, peptide 10 mg/kg i.p. once daily for 7 days, LPS 10 mg/kg i.p., 6 h after LPS, LPS group 3.33 ± 0.58, mean ± SD", "value": "0.67 ± 0.58"},
      {"measurement": "expression of Occludin", "setting": "[2]; [6]", "value": "significantly higher than that in the LPS-group"},
      {"measurement": "expression of ZO-1", "setting": "[2]; [6]", "value": "significantly higher than that in the LPS-group"},
      {"measurement": "villus height to crypt depth (V/C) ratio", "setting": "[2]; jejunum, mice, peptide 10 mg/kg i.p. once daily for 7 days, LPS 10 mg/kg i.p., 6 h after LPS, LPS group 2.35 ± 0.389, mean ± SD", "value": "4.19 ± 0.364"},
      {"measurement": "body weight (weight loss after LPS)", "setting": "[2]; mice, peptide 10 mg/kg i.p. once daily, then LPS 10 mg/kg i.p. 1 h after last dose, n = 12", "value": "recovered their weight loss rapidly"},
      {"measurement": "concentration that completely neutralizes LPS", "setting": "[3]; LPS 1.0 EU/mL, 37°C 15 min, CE TAL, n = 3", "value": "≥ 8", "unit": "µg/mL"},
      {"measurement": "inhibition of the activation of tachypleus amebocyte lysate (LPS neutralization)", "setting": "[3]; LPS 1.0 EU/mL, peptide 0–64 μg/mL, 37°C 15 min, n = 3", "value": "dose-dependent manner"},
      {"measurement": "concentration that almost completely neutralizes LPS", "setting": "[3]; in vitro, CE TAL, statement of the discussion", "value": 8, "unit": "µg/mL"}
    ]},
    {"sequence": "IGKEFKRIVQRIKDFLRNLVPRTERKDVT [LTP, hybrid peptide LL-37-TP5]", "values": [
      {"measurement": "cytotoxic activity on RAW264.7 macrophage cells", "setting": "RAW264.7 cells", "value": "lowest cytotoxic activity"},
      {"measurement": "cell viability", "setting": "RAW264.7 cells", "value": "greater than 100%"}
    ]}
  ]
}
